Source: publication PMC5218480 (PLoS ONE, 2017)

Test system: MV-4-11 cells
Assay: Gene expression microarray analysis (Affymetrix PrimeView) and GSEA
Assay type: cell-based, human
Design: RFU PODN (11730768_x_at) / Fold change /veh PODN (11730768_x_at) / RFU LINC00158 (11744669_a_at) / Fold change /veh LINC00158 (11744669_a_at) / RFU DUSP10 (11751237_a_at) / Fold change /veh DUSP10 (11751237_a_at) / RFU ID3 (11757404_x_at) / Fold change /veh ID3 (11757404_x_at) / RFU PLEKHG5 (11737974_s_at) / Fold change /veh PLEKHG5 (11737974_s_at) / RFU LRRC4B (11730491_at) / Fold change /veh LRRC4B (11730491_at) / RFU GIMAP4 (11747438_a_at) / Fold change /veh GIMAP4 (11747438_a_at) / RFU KRT8 (11758183_x_at) / Fold change /veh KRT8 (11758183_x_at) / RFU CNN1 (11734310_a_at) / Fold change /veh CNN1 (11734310_a_at) / RFU VPS37D (11726825_at) / Fold change /veh VPS37D (11726825_at) / RFU C10orf10 (11716522_x_at) / Fold change /veh C10orf10 (11716522_x_at) / RFU KIR2DL2 /// KIR2DL4 /// KIR2DL5A /// KIR2DL5B /// KIR2DS1 /// KIR2DS2 /// KIR2DS3 /// KIR2DS4 /// KIR3DL3 /// KIR3DL3 /// KIR3DS1 (11738374_at) / Fold change /veh KIR2DL2 /// KIR2DL4 /// KIR2DL5A /// KIR2DL5B /// KIR2DS1 /// KIR2DS2 /// KIR2DS3 /// KIR2DS4 /// KIR3DL3 /// KIR3DL3 /// KIR3DS1 (11738374_at) / RFU C1QL1 (11718748_at) / Fold change /veh C1QL1 (11718748_at) / RFU TMPRSS4 (11747572_a_at) / Fold change /veh TMPRSS4 (11747572_a_at) / RFU HAMP (11756126_x_at) / Fold change /veh HAMP (11756126_x_at) / RFU RNFT2 (11725882_a_at) / Fold change /veh RNFT2 (11725882_a_at) / RFU NR4A2 (11747474_a_at) / Fold change /veh NR4A2 (11747474_a_at) / RFU ABCC12 (11746883_a_at) / Fold change /veh ABCC12 (11746883_a_at) / RFU TMEM136 (11760407_x_at) / Fold change /veh TMEM136 (11760407_x_at) / RFU CLDN22 /// WWC2 (11732394_at) / Fold change /veh CLDN22 /// WWC2 (11732394_at) / RFU HLA-DPB1 (11760878_x_at) / Fold change /veh HLA-DPB1 (11760878_x_at) / RFU SPINT1 (11716480_a_at) / Fold change /veh SPINT1 (11716480_a_at) / RFU GAP43 (11754022_s_at) / Fold change /veh GAP43 (11754022_s_at) / RFU A4GNT (11735810_at) / Fold change /veh A4GNT (11735810_at) / RFU PRB3 (11715151_x_at) / Fold change /veh PRB3 (11715151_x_at) / RFU TUBB4B (11761932_at) / Fold change /veh TUBB4B (11761932_at) / RFU CAPN14 (11732068_a_at) / Fold change /veh CAPN14 (11732068_a_at) / RFU TMCC2 (11721928_a_at) / Fold change /veh TMCC2 (11721928_a_at) / RFU IRGQ (11745062_a_at) / Fold change /veh IRGQ (11745062_a_at) / RFU FAM174B (11720279_a_at) / Fold change /veh FAM174B (11720279_a_at) / RFU TMPRSS4 (11748680_a_at) / Fold change /veh TMPRSS4 (11748680_a_at) / RFU FAM212B (11763350_a_at) / Fold change /veh FAM212B (11763350_a_at) / RFU PLEKHG5 (11743358_a_at) / Fold change /veh PLEKHG5 (11743358_a_at) / RFU ZSCAN30 (11745921_a_at) / Fold change /veh ZSCAN30 (11745921_a_at) / RFU CMKLR1 (11741424_a_at) / Fold change /veh CMKLR1 (11741424_a_at) / RFU LOC101060620 /// MAPK8IP1 (11723275_at) / Fold change /veh LOC101060620 /// MAPK8IP1 (11723275_at) / RFU SPTSSB (11747773_x_at) / Fold change /veh SPTSSB (11747773_x_at) / RFU PRSS12 (11739890_at) / Fold change /veh PRSS12 (11739890_at) / RFU BIN1 (11741810_x_at) / Fold change /veh BIN1 (11741810_x_at) / RFU WNT11 (11732464_a_at) / Fold change /veh WNT11 (11732464_a_at) / RFU C10orf10 (11716521_a_at) / Fold change /veh C10orf10 (11716521_a_at) / RFU C5orf56 (11738089_at) / Fold change /veh C5orf56 (11738089_at) / RFU CYB561 (11721691_x_at) / Fold change /veh CYB561 (11721691_x_at) / RFU ANKRD19P (11752326_a_at) / Fold change /veh ANKRD19P (11752326_a_at) / RFU OR2T12 /// OR2T33 /// OR2T8 (11738714_s_at) / Fold change /veh OR2T12 /// OR2T33 /// OR2T8 (11738714_s_at) / RFU VCAN (11748164_a_at) / Fold change /veh VCAN (11748164_a_at) / RFU JSRP1 (11732532_at) / Fold change /veh JSRP1 (11732532_at) / RFU KRTAP10-11 (11738290_x_at) / Fold change /veh KRTAP10-11 (11738290_x_at) / RFU MYO3A (11730013_a_at) / Fold change /veh MYO3A (11730013_a_at) / RFU EBF3 (11725865_a_at) / Fold change /veh EBF3 (11725865_a_at) / RFU CAMK2N1 (11719241_x_at) / Fold change /veh CAMK2N1 (11719241_x_at) / RFU C5orf56 (11738088_a_at) / Fold change /veh C5orf56 (11738088_a_at) / RFU OLFML3 (11715873_a_at) / Fold change /veh OLFML3 (11715873_a_at) / RFU LOC100653217 /// NTM (11731650_a_at) / Fold change /veh LOC100653217 /// NTM (11731650_a_at) / RFU MAPK11 (11762145_a_at) / Fold change /veh MAPK11 (11762145_a_at) / RFU FIZ1 (11724087_x_at) / Fold change /veh FIZ1 (11724087_x_at) / RFU OASL (11726364_x_at) / Fold change /veh OASL (11726364_x_at) / RFU SOX15 (11748057_x_at) / Fold change /veh SOX15 (11748057_x_at) / RFU CD79A (11719716_a_at) / Fold change /veh CD79A (11719716_a_at) / RFU HIST1H1D (11736915_at) / Fold change /veh HIST1H1D (11736915_at) / RFU CASKIN2 (11723855_a_at) / Fold change /veh CASKIN2 (11723855_a_at) / RFU LOC730098 (11760151_x_at) / Fold change /veh LOC730098 (11760151_x_at) / RFU OR4N2 (11742367_at) / Fold change /veh OR4N2 (11742367_at) / RFU PRRT2 (11749266_a_at) / Fold change /veh PRRT2 (11749266_a_at) / RFU SNX32 (11753110_a_at) / Fold change /veh SNX32 (11753110_a_at) / RFU CDHR5 (11726645_a_at) / Fold change /veh CDHR5 (11726645_a_at) / RFU RCAN1 (11760418_a_at) / Fold change /veh RCAN1 (11760418_a_at) / RFU FAM167A (11723789_a_at) / Fold change /veh FAM167A (11723789_a_at) / RFU FAM26E (11764081_at) / Fold change /veh FAM26E (11764081_at) / RFU ISYNA1 (11749810_s_at) / Fold change /veh ISYNA1 (11749810_s_at) / RFU ACY1 (11761880_at) / Fold change /veh ACY1 (11761880_at) / RFU 11764098_at / Fold change /veh 11764098_at / RFU SAMD14 (11745864_x_at) / Fold change /veh SAMD14 (11745864_x_at) / RFU NPB (11741838_a_at) / Fold change /veh NPB (11741838_a_at) / RFU TMPRSS6 (11731388_a_at) / Fold change /veh TMPRSS6 (11731388_a_at) / RFU KRTAP10-2 (11738614_at) / Fold change /veh KRTAP10-2 (11738614_at) / RFU ARHGAP8 /// PRR5-ARHGAP8 (11727945_x_at) / Fold change /veh ARHGAP8 /// PRR5-ARHGAP8 (11727945_x_at) / RFU KRTAP5-7 /// NADSYN1 (11734609_at) / Fold change /veh KRTAP5-7 /// NADSYN1 (11734609_at) / RFU RASL12 (11751679_a_at) / Fold change /veh RASL12 (11751679_a_at) / RFU CDKN2B (11736163_a_at) / Fold change /veh CDKN2B (11736163_a_at) / RFU PRF1 (11729649_at) / Fold change /veh PRF1 (11729649_at) / RFU, ZNF638 /// ZNF638-IT1 / Fold change vs veh, ZNF638 /// ZNF638-IT1 / RFU, PANK3 / Fold change vs veh, PANK3 / RFU, SH3YL1 / Fold change vs veh, SH3YL1 / RFU, ZEB2 / Fold change vs veh, ZEB2 / RFU, NRIP1 / Fold change vs veh, NRIP1 / RFU, PTTG1IP / Fold change vs veh, PTTG1IP / RFU, CAPN2 / Fold change vs veh, CAPN2 / RFU, MED14 / Fold change vs veh, MED14 / RFU, SNORA58 / Fold change vs veh, SNORA58 / RFU, C1orf63 / Fold change vs veh, C1orf63 / RFU, LRRFIP1 / Fold change vs veh, LRRFIP1 / RFU, NDUFAF7 / Fold change vs veh, NDUFAF7 / RFU, SLC12A2 / Fold change vs veh, SLC12A2 / RFU, IBTK / Fold change vs veh, IBTK / RFU, ESF1 / Fold change vs veh, ESF1 / Fold change vs veh, TMEM50B / RFU, TAOK1 / Fold change vs veh, TAOK1 / RFU, ACBD3 / Fold change vs veh, ACBD3 / RFU, TMA16 / Fold change vs veh, TMA16 / RFU, RWDD3 / Fold change vs veh, RWDD3 / RFU, BCAT1 / Fold change vs veh, BCAT1 / RFU, EDEM3 / Fold change vs veh, EDEM3 / RFU, TMEM33 / Fold change vs veh, TMEM33 / RFU, WDR75 / Fold change vs veh, WDR75 / RFU, AHCTF1 / Fold change vs veh, AHCTF1 / RFU, TFRC / Fold change vs veh, TFRC / RFU, ZDHHC17 / Fold change vs veh, ZDHHC17 / RFU, NOM1 / Fold change vs veh, NOM1 / RFU, ARL8B / Fold change vs veh, ARL8B / RFU, ZBTB11 / Fold change vs veh, ZBTB11 / RFU, TAMM41 / Fold change vs veh, TAMM41 / RFU, KIAA1704 /// LOC100996395 / Fold change vs veh, KIAA1704 /// LOC100996395 / RFU, ING1 / Fold change vs veh, ING1 / RFU, TRMT61B / Fold change vs veh, TRMT61B / RFU, FUBP3 / Fold change vs veh, FUBP3 / RFU, TP53 / Fold change vs veh, TP53 / RFU, TNKS2 / Fold change vs veh, TNKS2 / RFU, ZFP14 / Fold change vs veh, ZFP14 / RFU, ACTR2 / Fold change vs veh, ACTR2 / RFU, PPP3R1 / Fold change vs veh, PPP3R1 / RFU, PIK3R1 / Fold change vs veh, PIK3R1 / RFU, HNRNPA1 / Fold change vs veh, HNRNPA1 / RFU, RNF170 / Fold change vs veh, RNF170 / RFU, ZNF28 / Fold change vs veh, ZNF28 / RFU, RNGTT / Fold change vs veh, RNGTT / RFU, OGT / Fold change vs veh, OGT / RFU, BRD1 / Fold change vs veh, BRD1 / RFU, MARS / Fold change vs veh, MARS / RFU, ZNF655 / Fold change vs veh, ZNF655 / RFU, FAHD1 / Fold change vs veh, FAHD1 / RFU, BDP1 / Fold change vs veh, BDP1 / RFU, LRRCC1 / Fold change vs veh, LRRCC1 / RFU, ARID1A / Fold change vs veh, ARID1A / RFU, ZNF146 / Fold change vs veh, ZNF146 / RFU, ZNF330 / Fold change vs veh, ZNF330 / RFU, GPN3 / Fold change vs veh, GPN3 / RFU, C9orf123 / Fold change vs veh, C9orf123 / RFU, N4BP2L2 / Fold change vs veh, N4BP2L2 / RFU, ARFIP1 / Fold change vs veh, ARFIP1 / RFU, FAM179B / Fold change vs veh, FAM179B / RFU, BCL10 / Fold change vs veh, BCL10 / RFU, UHRF1BP1L / Fold change vs veh, UHRF1BP1L / RFU, BET1 / Fold change vs veh, BET1 / RFU, CNOT2 / Fold change vs veh, CNOT2 / RFU, ZNF268 / Fold change vs veh, ZNF268 / Fold change vs veh, ZNF507 / RFU, DGCR2 / Fold change vs veh, DGCR2 / RFU, WDSUB1 / Fold change vs veh, WDSUB1 / Fold change vs veh, HSP90B1 /// MIR3652 / RFU, ADSS / Fold change vs veh, ADSS / RFU, GK / Fold change vs veh, GK / RFU, ZNF148 / Fold change vs veh, ZNF148 / RFU, TAF9 / Fold change vs veh, TAF9 / RFU, SLC1A5 / Fold change vs veh, SLC1A5 / RFU, SLMO2 / Fold change vs veh, SLMO2 / RFU, ABCC4 / Fold change vs veh, ABCC4 / RFU, LOC101060439 /// RAP1B / Fold change vs veh, LOC101060439 /// RAP1B / RFU, RFX7 / Fold change vs veh, RFX7 / RFU, GTPBP10 / Fold change vs veh, GTPBP10 / RFU, CNEP1R1 / Fold change vs veh, CNEP1R1 / RFU, BIVM-ERCC5 /// ERCC5 / Fold change vs veh, BIVM-ERCC5 /// ERCC5 / RFU, ILF3 / Fold change vs veh, ILF3 / RFU 11762660_at / Fold change /veh 11762660_at / RFU VCAN (11757783_s_at) / Fold change /veh VCAN (11757783_s_at) / RFU DDX43 (11728927_at) / Fold change /veh DDX43 (11728927_at) / RFU KRT8 (11758188_x_at) / Fold change /veh KRT8 (11758188_x_at) / RFU NKD1 (11759106_at) / Fold change /veh NKD1 (11759106_at) / RFU SRD5A1 (11742802_a_at) / Fold change /veh SRD5A1 (11742802_a_at) / RFU TPSAB1 /// TPSB2 (11721975_s_at) / Fold change /veh TPSAB1 /// TPSB2 (11721975_s_at) / RFU GSTM3 (11746129_a_at) / Fold change /veh GSTM3 (11746129_a_at) / RFU IL23R (11737362_x_at) / Fold change /veh IL23R (11737362_x_at) / RFU TMEM51 (11727254_a_at) / Fold change /veh TMEM51 (11727254_a_at) / RFU PIWIL2 (11732686_x_at) / Fold change /veh PIWIL2 (11732686_x_at) / RFU ORM1 (11744905_x_at) / Fold change /veh ORM1 (11744905_x_at) / RFU CCDC152 (11743942_at) / Fold change /veh CCDC152 (11743942_at) / RFU ECM1 (11717891_a_at) / Fold change /veh ECM1 (11717891_a_at) / RFU IL23R (11748794_a_at) / Fold change /veh IL23R (11748794_a_at) / RFU TNFAIP8L3 (11732012_x_at) / Fold change /veh TNFAIP8L3 (11732012_x_at) / RFU MBOAT4 (11741988_at) / Fold change /veh MBOAT4 (11741988_at) / RFU 11764193_at / Fold change /veh 11764193_at / RFU TMEM53 (11763286_at) / Fold change /veh TMEM53 (11763286_at) / RFU MAGEB2 (11727129_at) / Fold change /veh MAGEB2 (11727129_at) / RFU TMEM200A (11744735_a_at) / Fold change /veh TMEM200A (11744735_a_at) / RFU CCDC152 (11751479_a_at) / Fold change /veh CCDC152 (11751479_a_at) / RFU FAM211A (11726209_a_at) / Fold change /veh FAM211A (11726209_a_at) / RFU RGS16 (11746705_a_at) / Fold change /veh RGS16 (11746705_a_at) / RFU VCAN (11755009_s_at) / Fold change /veh VCAN (11755009_s_at) / RFU RHOB (11743442_s_at) / Fold change /veh RHOB (11743442_s_at) / RFU RGS16 (11720943_a_at) / Fold change /veh RGS16 (11720943_a_at) / RFU RGS16 (11720944_at) / Fold change /veh RGS16 (11720944_at) / RFU, VPS4B / Fold change vs veh, VPS4B / RFU, CREB1 / Fold change vs veh, CREB1 / RFU, DNAJC13 / Fold change vs veh, DNAJC13 / RFU, GNAQ / Fold change vs veh, GNAQ / RFU, CDK5R1 / Fold change vs veh, CDK5R1 / RFU, ZRANB3 / Fold change vs veh, ZRANB3 / RFU, CUL4A / Fold change vs veh, CUL4A / RFU, CCNY / Fold change vs veh, CCNY / RFU, UFL1 / Fold change vs veh, UFL1 / RFU, COG3 / Fold change vs veh, COG3 / RFU, DIAPH2 / Fold change vs veh, DIAPH2 / RFU, SKA2 / Fold change vs veh, SKA2 / RFU, AFF3 / Fold change vs veh, AFF3 / RFU, LMF1 / Fold change vs veh, LMF1 / RFU, IPO11 / Fold change vs veh, IPO11 / RFU, DFFB / Fold change vs veh, DFFB / RFU, FOXP1 / Fold change vs veh, FOXP1 / RFU, CARD8 / Fold change vs veh, CARD8 / RFU, STRN3 / Fold change vs veh, STRN3 / RFU, ADK / Fold change vs veh, ADK / RFU, RASSF2 / Fold change vs veh, RASSF2 / RFU, WIPF1 / Fold change vs veh, WIPF1 / RFU, LARP1B / Fold change vs veh, LARP1B / RFU, RASA1 / Fold change vs veh, RASA1 / RFU, RB1 / Fold change vs veh, RB1 / RFU, PPFIA1 / Fold change vs veh, PPFIA1 / RFU, MAT2A / Fold change vs veh, MAT2A / RFU, CCT5 / Fold change vs veh, CCT5 / RFU, WDR92 / Fold change vs veh, WDR92 / RFU, CUX1 / Fold change vs veh, CUX1 / RFU, TTC7A / Fold change vs veh, TTC7A / RFU, TMEM135 / Fold change vs veh, TMEM135 / RFU, DEPTOR / Fold change vs veh, DEPTOR / RFU, CPM / Fold change vs veh, CPM / RFU, DNAJB6 / Fold change vs veh, DNAJB6 / RFU, CACNA2D3 / Fold change vs veh, CACNA2D3 / RFU, DTX4 / Fold change vs veh, DTX4 / RFU, TFCP2 / Fold change vs veh, TFCP2 / RFU, GMCL1 /// GMCL1P1 / Fold change vs veh, GMCL1 /// GMCL1P1 / RFU, AEBP2 / Fold change vs veh, AEBP2 / RFU, SNHG1 /// SNORD22 /// SNORD25 /// SNORD26 /// SNORD27 /// SNORD28 /// SNORD29 /// SNORD31 / Fold change vs veh, SNHG1 /// SNORD22 /// SNORD25 /// SNORD26 /// SNORD27 /// SNORD28 /// SNORD29 /// SNORD31 / Fold change (Aza/veh), C12orf56 (ProbeSet 11735607_a_at) / Fold change (ACY-1035/veh), C12orf56 (ProbeSet 11735607_a_at) / Fold change (Aza/veh), FGFR1OP (ProbeSet 11751329_s_at) / Fold change (ACY-1035/veh), FGFR1OP (ProbeSet 11751329_s_at) / Fold change (Aza/veh), VPS36 (ProbeSet 11739960_a_at) / Fold change (ACY-1035/veh), VPS36 (ProbeSet 11739960_a_at) / RFU SYPL1 (11715823_x_at) / Fold change /veh SYPL1 (11715823_x_at) / RFU IGFBP7 (11715501_s_at) / Fold change /veh IGFBP7 (11715501_s_at) / RFU REEP3 (11722064_at) / Fold change /veh REEP3 (11722064_at) / RFU IGLL1 (11728026_x_at) / Fold change /veh IGLL1 (11728026_x_at): dose or concentration left out as unconfirmed
Details: ProbeSet 11755425_a_at; LIST B

## Nc1ccc(-c2cccs2)cc1NC(=O)c1ccc2c(c1)cc(C1CC1)n2CCN1CCOCC1 [ACY-1035]
  RFU, FAM179B: 77.88 RFU
